Here are results for ten compounds from patent US8435990B2, “Dihydropyrimidone amides as P2X7 modulators” (Roche Palo Alto LLC, priority 2009, dated 2013).

Each structure is given as a SMILES string. pIC50: −log10 of the molar value.

This test has as its target T1, human P2X7 (Homo sapiens, UniProt Q99572).
T1 construct: 1321N1 cells stably expressing the full length human P2X7 gene (1321N1-hP2X7)
T1 sequence (Q99572 1-595): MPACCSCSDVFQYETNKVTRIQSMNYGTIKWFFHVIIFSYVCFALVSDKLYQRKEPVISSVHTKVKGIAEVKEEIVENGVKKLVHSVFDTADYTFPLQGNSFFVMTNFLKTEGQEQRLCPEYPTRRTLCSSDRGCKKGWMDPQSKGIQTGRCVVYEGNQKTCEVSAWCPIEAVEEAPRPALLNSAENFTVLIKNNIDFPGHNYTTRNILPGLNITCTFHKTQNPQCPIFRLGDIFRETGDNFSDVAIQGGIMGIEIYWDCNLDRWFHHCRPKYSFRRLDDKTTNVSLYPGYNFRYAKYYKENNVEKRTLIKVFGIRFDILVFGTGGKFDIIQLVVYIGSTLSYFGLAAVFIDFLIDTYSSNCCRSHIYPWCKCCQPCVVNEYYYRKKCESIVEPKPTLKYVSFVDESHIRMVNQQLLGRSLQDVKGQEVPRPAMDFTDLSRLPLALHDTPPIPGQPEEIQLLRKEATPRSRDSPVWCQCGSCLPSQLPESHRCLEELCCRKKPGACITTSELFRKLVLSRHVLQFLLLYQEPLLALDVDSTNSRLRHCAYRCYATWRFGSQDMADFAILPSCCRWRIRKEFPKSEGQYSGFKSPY
Kind of test: P2X7 modulator pIC50 of Table 1 (assay not given; Intracellular Calcium Flux (FLIPR) Assay assumed). Type of test: cell-based. Summed up:
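1321N1 cells expressing human P2X7, fluo-3 loaded, pre-equilibrated 20 min at RT with antagonist; 100 μM BzATP agonist added and calcium fluorescence recorded 5 min on FLIPR. BzATP-evoked maximum normalised to 5 μM ionomycin response. HEK293 rat P2X7 cells used 5 μM BzATP.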
Background: A change in cytosolic calcium serves as a functional read-out for many receptors and channels.
In the case of `CCn1c(=O)cnn(-c2ccc(C)c(NC(=O)C3=CN(C)C(=O)N[C@H]3c3ccc(F)cc3)c2)c1=O` [Compound 64, (S)-4-(4-Fluoro-phenyl)-1-methyl-2-oxo-1,2,3,4-tetrahydro-pyrimidine-5-carboxylic acid [5-(4-ethyl-3,5-dioxo-4,5-dihydro-3H-[1,2,4]triazin-2-yl)-2-methyl-phenyl]-amide], the pIC50 (in general, the negative decadic logarithm of the IC50, by convention in mol/L) is 7.78.

For `Cc1ccc2c(C)c(NC(=O)C3=CN(C)C(=O)N[C@H]3c3ccc(F)cc3)ccc2n1` [Compound 65, (S)-4-(4-Fluoro-phenyl)-1-methyl-2-oxo-1,2,3,4-tetrahydro-pyrimidine-5-carboxylic acid (2,5-dimethyl-quinolin-6-yl)-amide], the pIC50 is 7.81.

On to `Cc1cc(Cl)c(-n2cccc(C)c2=O)cc1NC(=O)C1=CN(C)C(=O)N[C@H]1c1ccc(F)cc1` [Compound 66, (S)-4-(4-Fluoro-phenyl)-1-methyl-2-oxo-1,2,3,4-tetrahydro-pyrimidine-5-carboxylic acid [4-chloro-2-methyl-5-(3-methyl-2-oxo-2H-pyridin-1-yl)-phenyl]-amide], for which the pIC50 was 7.71.

With `Cc1ccc(-n2ccc(=O)n(C)c2=O)cc1NC(=O)C1=CN(C)C(=O)N[C@H]1c1ccc(F)cc1` [Compound 68, (S)-4-(4-Fluoro-phenyl)-1-methyl-2-oxo-1,2,3,4-tetrahydro-pyrimidine-5-carboxylic acid [2-methyl-5-(3-methyl-2,4-dioxo-3,4-dihydro-2H-pyrimidin-1-yl)-phenyl]-amide], the negative logarithm of the IC50 (pIC50) is 7.42.

With `Cc1cc(F)c(-n2ncccc2=O)cc1NC(=O)C1=CN(C)C(=O)N[C@H]1c1ccc(F)cc1` [Compound 69, (S)-4-(4-Fluoro-phenyl)-1-methyl-2-oxo-1,2,3,4-tetrahydro-pyrimidine-5-carboxylic acid [4-fluoro-2-methyl-5-(6-oxo-6H-pyridazin-1-yl)-phenyl]-amide], the pIC50 is 7.71.

As to `Cc1cc(F)c(-c2cccn(C)c2=O)cc1NC(=O)C1=CN(C)C(=O)N[C@H]1c1ccc(F)cc1` [Compound 70, (S)-4-(4-Fluoro-phenyl)-1-methyl-2-oxo-1,2,3,4-tetrahydro-pyrimidine-5-carboxylic acid [4-fluoro-2-methyl-5-(1-methyl-2-oxo-1,2-dihydro-pyridin-3-yl)-phenyl]-amide], the pIC50 was 7.48.

For `Cc1ccc(=O)n(-c2ccc(C)c(NC(=O)C3=CN(C)C(=O)N[C@H]3c3ccc(F)cc3)c2)c1` [Compound 71, (S)-4-(4-Fluoro-phenyl)-1-methyl-2-oxo-1,2,3,4-tetrahydro-pyrimidine-5-carboxylic acid [2-methyl-5-(5-methyl-2-oxo-2H-pyridin-1-yl)-phenyl]-amide], the pIC50 was 7.37.

With `CN1C=C(C(=O)Nc2cc(-c3ccnn(C)c3=O)ccc2F)[C@H](c2ccc(F)cc2)NC1=O` [Compound 72, (S)-4-(4-Fluoro-phenyl)-1-methyl-2-oxo-1,2,3,4-tetrahydro-pyrimidine-5-carboxylic acid [2-fluoro-5-(2-methyl-3-oxo-2,3-dihydro-pyridazin-4-yl)-phenyl]-amide], the pIC50 is 7.80.

As to `Cc1cnn(-c2cc(NC(=O)C3=CN(C)C(=O)N[C@H]3c3ccc(F)cc3)c(C)cc2F)c(=O)c1` [Compound 73, (S)-4-(4-Fluoro-phenyl)-1-methyl-2-oxo-1,2,3,4-tetrahydro-pyrimidine-5-carboxylic acid [4-fluoro-2-methyl-5-(4-methyl-6-oxo-6H-pyridazin-1-yl)-phenyl]-amide], the pIC50 is 7.25.

Consider `CN1C=C(C(=O)Nc2cc(-n3ncccc3=O)ccc2F)[C@H](c2ccc(F)cc2)NC1=O` [Compound 74, (S)-4-(4-Fluoro-phenyl)-1-methyl-2-oxo-1,2,3,4-tetrahydro-pyrimidine-5-carboxylic acid [2-fluoro-5-(6-oxo-6H-pyridazin-1-yl)-phenyl]-amide], for which the negative logarithm of the IC50 (pIC50) is 7.00.
